Publication PMC11729550, “Discovery of indole analogue Tc3 as a potent pyroptosis inducer and identification of its combination strategy against hepatic carcinoma” (Theranostics, 2025)
Read-outs that look alike come from different tables or passages of the source.

Columns and labels:
[1] = system: HepG2 cells; assay: Anti-tumor activity assay (IC50 value), cells counted after three days; details: for IC50: read-out: IC50 HepG2; for fold increase in cellular potency: HepG2, compared to T1;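 for all read-outs here: HepG2 cells exposed to a drug concentration series for 3 days, then counted with a hemocytometer, inhibition relative to untreated control cell number, IC50 obtained by curve fitting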
Method: (§1) For half maximal inhibitory concentrations (IC50) analysis, the hepatic carcinoma cells (HepG2, SK-Hep1 and PLC-PRF5) were seeded in 24-well plates respectively, then treated with drugs at concentration gradient for three days. The cells were counted with hemocytometer. […] A is the cell quantity of the control group and B is the cell quantity of the drug treated group. The cell inhibition rate was transformed using its logarithm. And the drug IC50 value were calculated by Graphpad Prsim 9 software with curve fitting of the drug concentration and log (cell inhibition rate).

[2] = system: SK-Hep1 cells; assay: as above; details: read-out: IC50 SK-Hep1
Method: as §1

[3] = system: HepG2 and SK-Hep1 cells; assay: LDH release assay; format: cell-based, human; details: 0-4 μM, three days
Method: The hepatic carcinoma cells were seeded in 96-well plates and treated with indole analogues for three days. Of note, the compounds were added into DMEM medium supplemented with 1% FBS. The cellular supernatant was collected for LDH release detection by using LDH cytotoxicity assay kit (Beyotime, C0016). Statistical analysis was combined with the cell viability data tested by WST-1 cell proliferation and cytotoxicity assay kit (Beyotime, C0035).

[4] = system: GSDME; assay: Western blot of GSDME activation; format: cell-based, human; details: HepG2 and SK-Hep1 cells
Method: The whole-cell protein was extracted by RIPA lysis buffer contained with protease and phosphatase inhibitor cocktail (MCE, HY-K0010) from cells treated by indole analogues. Proteins were separated by sodium dodecyl sulfate-polyacrylamide gel electrophoresis (SDS-PAGE) gel, and then blotted onto polyvinylidene difluoride membrane (Millipore, IPVH00010). The membranes were incubated with the primary antibodies and the following horseradish peroxidase-conjugated (HRP) secondary antibodies. Next, membranes were washed and developed by ECL regent (Millipore, WBKLS0500).

[5] = system: PLC-PRF5 cells; assay: Anti-tumor activity assay (IC50 value), cells counted after three days; format: cell-based; details: Homo sapiens, PLC-PRF-5, 72 h
Source text: The cells were counted with hemocytometer.

[6] = Liver microsome metabolic stability assay; details: microsomes
Method: The reaction media contained liver microsomes (0.5 mg/mL), 1.0 mM β-nicotinamide adenine dinucleotide phosphate (β-NADPH), 3 mM MgCl2 phosphate buffer. Microsomal suspensions were pre-incubated with Tc3 for 3 min at 37℃. The reaction was initiated with the addition of β-NADPH and samples were collected at 0, 5, 15, 30 and 60 min. The negative control was excluded of β-NADPH. Midazolam was incubated similarly as a positive control substrate. At each time point, an aliquot was mixed acetonitrile. Samples were centrifuged and then supernatant was mixed with ultrapure water for LC-MS/MS analysis.

Compound | IC50 ([1]; Homo sapiens, HepG2, 72 h) [µM] | also measured
COc1cc2nccc(Oc3ccc(NC(=O)C4(C(=O)Nc5ccc(F)cc5)CC4)cc3)c2cc1OC [Cabozantinib, reference compound] | 2.64 ± 0.85 | IC50 ([2]; Homo sapiens, SK-HEP1, 72 h): 2.26 ± 0.32 µM
NCCCn1cc(/C=C2\SC(=O)N(Cc3ccc(F)cc3)C2=O)c2ccccc21 [Compound T1] | 15.9 | –
Nc1ccn([C@@H]2O[C@H](CO)[C@@H](O)C2(F)F)c(=O)n1 [Gemcitabine, reference compound] | 0.14 ± 0.01 | IC50 ([2]; Homo sapiens, SK-HEP1, 72 h): 0.04 ± 0.003 µM
COc1cc2nccc(Oc3ccc(NC(=O)NC4CC4)c(Cl)c3)c2cc1C(N)=O [Lenvatinib, reference compound] | 19.8 ± 1.43 | IC50 ([2]; Homo sapiens, SK-HEP1, 72 h): 12.4 ± 1.32 µM
CNC(=O)c1cc(Oc2ccc(NC(=O)Nc3ccc(Cl)c(C(F)(F)F)c3)c(F)c2)ccn1 [Regorafenib, reference compound] | 4.21 ± 0.33 | IC50 ([2]; Homo sapiens, SK-HEP1, 72 h): 4.23 ± 0.64 µM
CNC(=O)c1cc(Oc2ccc(NC(=O)Nc3ccc(Cl)c(C(F)(F)F)c3)cc2)ccn1 [Sorafenib, reference compound] | – | IC50 ([1]; 72 h): 6.06 µM; IC50 ([2]; 72 h): 4.4 µM
O=C(NCCCn1cc(/C=C2\SC(=O)N(Cc3ccc(F)cc3)C2=O)c2ccccc21)C1CCCC1 [Ta1] | 27.7 | –
CC(C)C(=O)NCCCn1cc(/C=C2\SC(=O)N(Cc3ccc(F)cc3)C2=O)c2ccccc21 [Ta3] | > 50 | –
CC(C)CCC(=O)NCCCn1cc(/C=C2\SC(=O)N(Cc3ccc(F)cc3)C2=O)c2ccccc21 [Ta4] | > 100 | –
CCCCCCCC(=O)NCCCn1cc(/C=C2\SC(=O)N(Cc3ccc(F)cc3)C2=O)c2ccccc21 [Ta5] | > 100 | –
C[C@H](N)C(=O)NCCCn1cc(/C=C2\SC(=O)N(Cc3ccc(F)cc3)C2=O)c2ccccc21 [Tb1] | 7.97 ± 0.3 | –
CC(C)[C@H](N)C(=O)NCCCn1cc(/C=C2\SC(=O)N(Cc3ccc(F)cc3)C2=O)c2ccccc21 [Tb2] | 6.74 ± 0.8 | –
O=C(NCCCn1cc(/C=C2\SC(=O)N(Cc3ccc(F)cc3)C2=O)c2ccccc21)[C@@H]1CCCN1 [Tb3] | 6.2 | –
O=C(NCCCn1cc(/C=C2\SC(=O)N(Cc3ccc(F)cc3)C2=O)c2cc(Br)ccc21)[C@@H]1CCCN1 [Tb4] | 9.23 | –
N[C@@H](Cc1ccc(O)cc1)C(=O)NCCCn1cc(/C=C2\SC(=O)N(Cc3ccc(F)cc3)C2=O)c2cc(Br)ccc21 [Tb5] | 11.3 | –
CSCC[C@H](N)C(=O)NCCCn1cc(/C=C2\SC(=O)N(Cc3ccc(F)cc3)C2=O)c2cc(Br)ccc21 [Tb6] | 6.31 ± 0.35 | –

Compound | IC50 ([1]; Homo sapiens, HepG2, 72 h) [µM] | also measured
CC[C@H](C)[C@H](N)C(=O)NCCCn1cc(/C=C2\SC(=O)N(Cc3ccc(F)cc3)C2=O)c2cc(Br)ccc21 [Tb7] | 1.79 | LDH release levels [3]: increased; fold increase in cellular potency [1]: ~9 fold; GSDME activation / cleavage (western blotting) [4]: did not activate GSDME; IC50 ([2]; Homo sapiens, SK-HEP1, 72 h): 2.21 ± 0.17 µM; IC50 [5]: 1.26 ± 0.31 µM
COc1ccc2c(c1)c(/C=C1\SC(=O)N(Cc3ccc(F)cc3)C1=O)cn2CCCNC(=O)[C@@H](N)Cc1ccc(O)cc1 [Tb8] | 6.92 ± 1.21 | –
COc1ccc2c(c1)c(/C=C1\SC(=O)N(Cc3ccc(F)cc3)C1=O)cn2CCCNC(=O)[C@@H]1CCCN1 [Tb9] | 7.47 | –
NCCCn1cc(/C=C2\S/C(=N\c3ccc(N4CCOCC4)cc3)N(Cc3ccc(F)cc3)C2=O)c2ccccc21 [Tc1] | 5.13 | LDH release levels [3]: increased; fold increase in cellular potency [1]: ~ 3 fold; GSDME activation / cleavage (western blotting) [4]: did not activate GSDME; IC50 ([2]; Homo sapiens, SK-HEP1, 72 h): 2.87 ± 0.61 µM; IC50 [5]: 2.71 ± 0.12 µM
CSCC[C@H](N)C(=O)NCCCn1cc(/C=C2\S/C(=N\c3ccc(N4CCOCC4)cc3)N(Cc3ccc(F)cc3)C2=O)c2ccccc21 [Tc2] | 8.77 | fold increase in cellular potency [1]: ~2 fold
O=C(NCCCn1cc(/C=C2\S/C(=N\c3ccc(N4CCOCC4)cc3)N(Cc3ccc(F)cc3)C2=O)c2ccccc21)[C@@H]1CCCN1 [Tc4] | 2.46 | LDH release levels [3]: increased; fold increase in cellular potency [1]: ~6.5 fold; GSDME activation / cleavage (western blotting) [4]: did not activate GSDME; IC50 ([2]; Homo sapiens, SK-HEP1, 72 h): 2.3 ± 0.14 µM; IC50 [5]: 2.92 ± 0.32 µM
CC[C@H](C)[C@H](N)C(=O)NCCCn1cc(/C=C2\S/C(=N\c3ccc(N4CCOCC4)cc3)N(Cc3ccc(F)cc3)C2=O)c2ccccc21 [Tc5] | 4.9 | fold increase in cellular potency [1]: ~ 3 fold
CC(C)[C@H](N)C(=O)NCCCn1cc(/C=C2\S/C(=N\c3ccccc3)N(Cc3ccc(F)cc3)C2=O)c2ccccc21 [Tc6] | > 100 | –
CC(C)[C@H](N)C(=O)NCCCn1cc(/C=C2\S/C(=N\c3ccc(F)cc3)N(Cc3ccc(F)cc3)C2=O)c2ccccc21 [Tc7] | 12.4 | –
CC(C)[C@H](N)C(=O)NCCCn1cc(/C=C2\S/C(=N\c3ccc(Cl)cc3)N(Cc3ccc(F)cc3)C2=O)c2ccccc21 [Tc8] | 15.2 | –
CC(C)[C@H](N)C(=O)NCCCn1cc(/C=C2\S/C(=N\c3ccc(C(F)(F)F)cc3)N(Cc3ccc(F)cc3)C2=O)c2ccccc21 [Tc9] | 10.8 | –
COc1ccc(/N=C2\S/C(=C\c3cn(CCCNC(=O)[C@@H](N)C(C)C)c4ccccc34)C(=O)N2Cc2ccc(F)cc2)cc1 [Tc10] | > 100 | –
CC(C)[C@H](N)C(=O)NCCCn1cc(/C=C2\S/C(=N/C3CCCCC3)N(Cc3ccc(F)cc3)C2=O)c2ccccc21 [Tc11] | 20.9 | –
CCCC/N=C1\S/C(=C\c2cn(CCCNC(=O)[C@@H](N)C(C)C)c3ccccc23)C(=O)N1Cc1ccc(F)cc1 [Tc12] | 25 | –
Cc1ncc2n1-c1ccc(Cl)cc1C(c1ccccc1F)=NC2 [midazolam, reference compound] | – | microsomal CLint at 1 μM ([6]; human): 1200 µL/min/mg; half-life at 1 μM ([6]; mouse): 2.72 min; microsomal CLint at 1 μM ([6]; mouse): 1270 µL/min/mg
